{
  "source": "patent US20160052936A1",
  "about": "“SPIROINDOLINE DERIVATIVES FOR USE AS GONADOTROPIN-RELEASING HORMONE RECEPTOR ANTAGONISTS” (BAYER PHARMA AKTIENGESELLSCHAFT, priority 2013, published 2016)",
  "key": {"human GnRHR": {"molecular_target": "T1, human GnRHR (Homo sapiens, UniProt P30968)", "T1 construct": "own knowledge: Tag-lite cells usually carry an N-terminal SNAP-tag fusion; host or cells: Hek293 cells, transiently transfected, supplied frozen", "T1 sequence (P30968 1-328)": "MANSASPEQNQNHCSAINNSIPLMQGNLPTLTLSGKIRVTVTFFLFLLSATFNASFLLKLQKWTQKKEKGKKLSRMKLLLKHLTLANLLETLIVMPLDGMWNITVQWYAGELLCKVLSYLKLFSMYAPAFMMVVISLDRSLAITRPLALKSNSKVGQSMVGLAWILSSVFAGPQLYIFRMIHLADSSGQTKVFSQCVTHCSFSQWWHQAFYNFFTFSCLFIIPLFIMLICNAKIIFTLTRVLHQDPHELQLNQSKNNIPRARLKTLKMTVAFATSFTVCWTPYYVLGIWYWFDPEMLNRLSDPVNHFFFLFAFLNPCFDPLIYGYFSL", "experiment": "Tag-Lite receptor binding assay", "conditions": "Hek293 cells transiently transfected with human GnRHR; displacement of green-labelled GnRHR binding peptide; read-out: Potency in receptor binding assay using TAG-LITE technology, given as IC50", "description": "2.2. Tag-Lite® Receptor Binding Assay\nThis binding assay is based on the fluorescence resonance energy transfer between fluorescence donor labelled human GnRHR and a green-labelled GnRHR binding peptide. Compounds interfering with the ligand binding side of the human GnRHR will replace the labelled peptide resulting in a signal decrease. The assay principle was established by Cisbio Bioassays (Bagnols-sur-Cèze Cedex, France) and further details are available on their homepage.\nThe assay procedure was further optimized for use in-house with reduced assay volumes. Frozen Hek293 cells, transiently transfected with human GnRHR and Terbium-labelling of the receptor, were supplied by Cisbio Bioassays as well as Tag-Lite buffer and green-labelled GnRHR binding peptide. Cells were thawed and transferred to cold Tag-Lite buffer. A volume of 8 μl of this cell suspension were added to 100 nl of a 160-fold concentrated solution of the test compound in DMSO pre-dispensed in a well of a white low-volume 384-well microtiter plate (Greiner Bio-One, Frickenhausen, Germany). The mixture was incubated for 5 min at room temperature. In the next step either 4 μl Tag-Lite buffer or as control 4 μl of an exceeding amount unlabelled binding peptide in Tag-Lite buffer were transferred to the mixture. The green-labelled GnRHR binding peptide was added in a final step at EC50 in a volume of 4 μl Tag-Lite buffer. After an incubation of 1 h at room temperature plates were measured in a microplate reader, e.g. a PHERAstar (BMG Labtechnologies, Offenburg, Germany) by using a specific optic module.\nA ratio from the fluorescence emissions at 520 nm (green fluorescence) and at 490 nm (background signal of Terbium-labelled GnRHR) was calculated and the data were normalized (reaction without test compound=0% inhibition of binding of green-labelled peptide; reaction without test compound with exceeding amount unlabelled binding peptide=100% inhibition of binding of green-labelled peptide). On the same microtiter plate, compounds were tested at 10 different concentrations in the range of 12.5 μM to 0.64 nM (12.5 μM, 4.2 μM, 1.4 μM, 0.46 μM, 0.15 μM, 51 nM, 17 nM, 5.7 nM, 1.9 nM and 0.64 nM; dilution series prepared before the assay at the level of the 160-fold conc. stock solutions by serial 1:3 dilutions in 100% DMSO) in duplicate values for each concentration. By using an in-house software, the IC50 values were calculated by a 4 parameter fit."}, "human GnRH receptor": {"molecular_target": "T2, human GnRH receptor (Homo sapiens, UniProt P30968)", "T2 construct": "host or cells: CHO cells stably expressing human GnRH receptor (line established by Prof. Thomas Gudermann)", "T2 sequence (P30968 1-328)": "T1 sequence (P30968 1-328)", "experiment": "IP-One HTRF assay with buserelin stimulation", "format": "cell-based", "conditions": "CHO cells stably expressing human GnRH receptor; buserelin at EC80; read-out: Potency in IP-One HTRF assay with buserelin (at EC80) stimulation, given as IC50", "outline": "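CHO cells stably expressing human GnRH receptor, preincubated 1 h with IP1-d2 at 37 °C, treated with compound and EC80 buserelin (LiCl present) for 1 h at 37 °C; IP1 measured by HTRF (665/620 nm ratio) after lysis 1 h at 22 °C. Ten concentrations, 20 μM–1 nM, duplicate; IC50 by 4-parameter fit.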"}},
  "data": [
    {"smiles": "O=C(NCc1ncc(C(F)(F)F)cc1F)c1ccc2c(c1)C1(CCS(=O)(=O)CC1)[C@H](C1CC1)N2S(=O)(=O)c1ccc(F)cc1", "note": "(single isomer, unassigned) [Example 1.1]", "values": [
      {"measurement": "IC50", "setting": "human GnRHR", "value": 230, "unit": "nM"},
      {"measurement": "IC50", "setting": "human GnRH receptor", "value": 93, "unit": "nM"}
    ]},
    {"smiles": "N#Cc1cccc(S(=O)(=O)N2c3ccc(C(=O)NCc4ncc(C(F)(F)F)cc4Cl)cc3C3(CCS(=O)(=O)CC3)[C@@H]2C2CC2)c1", "note": "(single isomer, unassigned) [Example 10.1]", "values": [
      {"measurement": "IC50", "setting": "human GnRHR", "value": 10.3, "unit": "nM"},
      {"measurement": "IC50", "setting": "human GnRH receptor", "value": 14, "unit": "nM"}
    ]},
    {"smiles": "O=C(NCc1ncc(C(F)(F)F)cc1Cl)c1ccc2c(c1)C1(CCS(=O)(=O)CC1)[C@H](C1CC1)N2S(=O)(=O)c1ccc(F)cc1", "note": "[Example 3.1, (2S)—N-{[3-chloro-5-(trifluoromethyl)pyridin-2-yl]methyl}-2-cyclopropyl-1-[(4-fluorophenyl)sulfonyl]-1,2,2′,3′,5′,6′-hexahydrospiro[indole-3,4′-thiopyran]-5-carboxamide 1′,1′-dioxide]", "values": [
      {"measurement": "IC50", "setting": "human GnRHR", "value": 16.7, "unit": "nM"},
      {"measurement": "IC50", "setting": "human GnRH receptor", "value": 21, "unit": "nM"}
    ]}
  ]
}
